Target: human NAMPT (Homo sapiens (Human), UniProt P43490)
Assay: NMN fluorescence biochemical assay (human recombinant NAMPT enzyme assay)
Procedure, shortened: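 Activation of recombinant human NAMPT (6 nM) was tested with 2.5 mM ATP, 20 μM PRPP and 150 μM nicotinamide in 50 mM HEPES pH 7.2 for 60 min at ambient temperature. NMN was derivatized with acetophenone/KOH/formic acid and read by fluorescence (355/460 nm) after 40 min.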

Sequence of human NAMPT (P43490 whole entry): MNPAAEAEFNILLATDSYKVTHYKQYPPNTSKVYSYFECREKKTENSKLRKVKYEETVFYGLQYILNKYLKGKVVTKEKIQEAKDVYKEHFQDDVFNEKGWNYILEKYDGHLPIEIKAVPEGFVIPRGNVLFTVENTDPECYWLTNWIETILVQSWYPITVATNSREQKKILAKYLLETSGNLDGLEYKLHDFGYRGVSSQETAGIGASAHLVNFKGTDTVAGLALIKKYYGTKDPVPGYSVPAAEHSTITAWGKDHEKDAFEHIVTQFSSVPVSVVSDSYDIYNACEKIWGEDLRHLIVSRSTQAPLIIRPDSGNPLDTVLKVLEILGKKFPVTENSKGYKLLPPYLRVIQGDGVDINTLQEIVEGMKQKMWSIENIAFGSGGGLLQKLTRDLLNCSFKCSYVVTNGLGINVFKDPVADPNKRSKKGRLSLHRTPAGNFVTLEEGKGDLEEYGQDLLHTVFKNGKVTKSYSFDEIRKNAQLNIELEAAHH

| SMILES | AC1.4 Human | EC50 |
| --- | --- | --- |
| O=C(Nc1ccc(Cc2cocn2)cc1)OCc1ccc(Cl)cc1 [Compound 353, 4-chlorobenzyl (4-(oxazol-4-ylmethyl)phenyl)] | 23.63 µM | 24.3 µM |
| O=C(Nc1ccc(COC2CN(C3COC3)C2)cc1)OCc1ccc(Cl)cc1 [Compound 354, 4-chlorobenzyl (4-(((1-(oxetan-3-yl)azetidin-3-yl)oxy)methyl)phenyl)carbamate] | 23.64 µM | 38.8 µM |
| Cn1cc(COC(=O)Nc2ccc(Cc3ccncc3)cc2)cn1 [Compound 355, (1-methyl-1H-pyrazol-4-yl)methyl (4-(pyridin-4-ylmethyl)phenyl)carbamate] | 25.86 µM | 4.96 µM |
| Cc1ccc(S(=O)(=O)NCc2ccc(NC(=O)OCc3ccc(Cl)cc3)cc2)cn1 [Compound 356, (4-chlorophenyl)methyl N-{4-[(6-methylpyridine-3-sulfonamido)methyl]phenyl}carbamate] | 29.04 µM | 18.2 µM |
| CC(C)C(=O)N1CC2(CC(c3ccc(NC(=O)OCc4cnco4)cc3)C2)C1 [Compound 357, oxazol-5-ylmethyl (4-(2-isobutyryl-2-azaspiro[3.3]heptan-6-yl)phenyl)carbamate] | 1.09 µM | 39.9 µM |
| CC(=O)N1CC2(CC(c3ccc(NC(=O)OCc4cnco4)cc3)C2)C1 [Compound 358, oxazol-5-ylmethyl (4-(2-acetyl-2-azaspiro[3.3]heptan-6-yl)phenyl)carbamate] | 0.25 µM | 28.9 µM |
| CS(=O)(=O)N1CCC[C@H](c2ccc(NC(=O)OCc3cnco3)cc2)C1 [Compound 365, oxazol-5-ylmethyl (R)-(4-(1-(methylsulfonyl)piperidin-3-yl)phenyl)carbamate] | 0.33 µM | 38.6 µM |
| CN(C)S(=O)(=O)N1CCC[C@H](c2ccc(NC(=O)OCc3cnco3)cc2)C1 [Compound 366, oxazol-5-ylmethyl (R)-(4-(1-(N,N-dimethylsulfamoyl)piperidin-3-yl)phenyl)carbamate] | 0.15 µM | 10.2 µM |
| CCC(=O)N1CCC2(CC(Cc3ccc(NC(=O)OCc4cnco4)cc3F)C2)C1 (centres unmarked) [Compound 367, oxazol-5-ylmethyl (3-fluoro-4-((6-propionyl-6-azaspiro[3.4]octan-2-yl)methyl)phenyl)carbamate] | 0.07 µM | 4.77 µM |
| CC(C)C(=O)N1CCC2(CC(Cc3ccc(NC(=O)OCc4cnco4)cc3F)C2)C1 (centres unmarked) [Compound 368, oxazol-5-ylmethyl (3-fluoro-4-((6-isobutyryl-6-azaspiro[3.4]octan-2-yl)methyl)phenyl)carbamate] | 0.09 µM | 2.93 µM |
| CCS(=O)(=O)N1CCC2(CC(Cc3ccc(NC(=O)OCc4cnco4)cc3F)C2)C1 (centres unmarked) [Compound 369, oxazol-5-ylmethyl (3-fluoro-4-((6-(ethylsulfonyl)-6-azaspiro[3.4]octan-2-yl)methyl)phenyl)carbamate] | 0.16 µM | 4.36 µM |
| CS(=O)(=O)N1CCC2(CC(Cc3ccc(NC(=O)OCc4cnco4)cc3F)C2)C1 (centres unmarked) [Compound 370, oxazol-5-ylmethyl (3-fluoro-4-((6-(methylsulfonyl)-6-azaspiro[3.4]octan-2-yl)methyl)phenyl)carbamate] | 0.13 µM | 5.8 µM |
| COC(=O)N1CCC2(CC(Cc3ccc(NC(=O)OCc4cnco4)cc3F)C2)C1 (centres unmarked) [Compound 371, methyl 2-(2-fluoro-4-(((oxazol-5-ylmethoxy)carbonyl)amino)benzyl)-6-azaspiro[3.4]octane-6-carboxylate] | 0.27 µM | 4.57 µM |
| CC(=O)N1CCC2(CC(Cc3ccc(NC(=O)OCc4cnco4)cc3F)C2)C1 (centres unmarked) [Compound 374, oxazol-5-ylmethyl (4-((6-acetyl-6-azaspiro[3.4]octan-2-yl)methyl)-3-fluorophenyl)carbamate] | 0.08 µM | 4.17 µM |
| CC(=O)N1CCC[C@H](c2ccc(NC(=O)OCc3cnco3)cc2)C1 [Compound 375, oxazol-5-ylmethyl (R)-(4-(1-acetylpiperidin-3-yl)phenyl)carbamate] | 1.32 µM | 53.8 µM |
| CC(C)(C)OC(=O)N1CCC2(CC(Cc3ccc(NC(=O)OCc4cnco4)cc3F)C2)C1 (centres unmarked) [Compound 377, tert-butyl 2-(2-fluoro-4-(((oxazol-5-ylmethoxy)carbonyl)amino)benzyl)-6-azaspiro[3.4]octane-6-carboxylate] | 1.08 µM | 9.37 µM |
| O=C(Nc1ccc(CC2CC3(CCNC3)C2)c(F)c1)OCc1cnco1 (centres unmarked) [Compound 378, oxazol-5-ylmethyl (4-((6-azaspiro[3.4]octan-2-yl)methyl)-3-fluorophenyl)carbamate] | 0.38 µM | 18.6 µM |

| SMILES | AC1.4 Human | EC50 |
| --- | --- | --- |
| CN(C)C(=O)N1CCC2(CC(Cc3ccc(NC(=O)OCc4cnco4)cc3F)C2)C1 (centres unmarked) [Compound 379, oxazol-5-ylmethyl (4-((6-(dimethylcarbamoyl)-6-azaspiro[3.4]octan-2-yl)methyl)-3-fluorophenyl)carbamate] | 0.12 µM | 2.96 µM |
| O=C(Nc1ccc([C@@H]2CCCN(C3COC3)C2)cc1)OCc1cnco1 [Compound 380, oxazol-5-ylmethyl (S)-(4-(1-(oxetan-3-yl)piperidin-3-yl)phenyl)carbamate] | 0.84 µM | 41.5 µM |
| CC(=O)N1CCC[C@@H](c2ccc(NC(=O)OCc3cnco3)cc2)C1 [Compound 381, oxazol-5-ylmethyl (S)-(4-(1-acetylpiperidin-3-yl)phenyl)carbamate] | 3.37 µM | 17 µM |
| CS(=O)(=O)N1CCC[C@@H](c2ccc(NC(=O)OCc3cnco3)cc2)C1 [Compound 382, oxazol-5-ylmethyl (S)-(4-(1-(methylsulfonyl)piperidin-3-yl)phenyl)carbamate] | 0.35 µM | 22.4 µM |
| COC(=O)N1CCC[C@@H](c2ccc(NC(=O)OCc3cnco3)cc2)C1 [Compound 383, methyl (S)-3-(4-(((oxazol-5-ylmethoxy)carbonyl)amino)phenyl)piperidine-1-carboxylate] | 2.58 µM | 20.3 µM |
| CN(C)S(=O)(=O)N1CCC[C@@H](c2ccc(NC(=O)OCc3cnco3)cc2)C1 [Compound 384, oxazol-5-ylmethyl (S)-(4-(1-(N,N-dimethylsulfamoyl)piperidin-3-yl)phenyl)carbamate] | 0.24 µM | 23.3 µM |
| CN(C)C(=O)N1CCC[C@@H](c2ccc(NC(=O)OCc3cnco3)cc2)C1 [Compound 385, oxazol-5-ylmethyl (S)-(4-(1-(dimethylcarbamoyl)piperidin-3-yl)phenyl)carbamate] | 1.69 µM | 20.8 µM |
| CCS(=O)(=O)N1CC2(CC(Cc3ccc(NC(=O)OCc4cnco4)cc3F)C2)C1 [Compound 386, oxazol-5-ylmethyl (4-((2-(ethylsulfonyl)-2-azaspiro[3.3]heptan-6-yl)methyl)-3-fluorophenyl)carbamate] | 0.14 µM | 14.1 µM |
| CN(C)S(=O)(=O)N1CC2(CC(c3ccc(NC(=O)OCc4cnco4)cc3F)C2)C1 [Compound 387, oxazol-5-ylmethyl (4-(2-(N,N-dimethylsulfamoyl)-2-azaspiro[3.3]heptan-6-yl)-3-fluorophenyl)carbamate] | 0.08 µM | 2.76 µM |
| CS(=O)(=O)N1CC2(CC(c3ccc(NC(=O)OCc4cnco4)cc3F)C2)C1 [Compound 388, oxazol-5-ylmethyl (3-fluoro-4-(2-(methylsulfonyl)-2-azaspiro[3.3]heptan-6-yl)phenyl)carbamate] | 0.13 µM | 10.2 µM |
| O=C(Nc1ccc(CC2CC3CCC(C2)N3C(=O)N2CCOCC2)cc1)OCc1cnco1 (centres unmarked) [Compound 389, oxazol-5-ylmethyl (4-((8-(morpholine-4-carbonyl)-8-azabicyclo[3.2.1]octan-3-yl)methyl)phenyl)carbamate] | 0.09 µM | 3.75 µM |
| O=C(Nc1ccc(CC2CC3CCC(C2)N3C(=O)N2CCCCC2)cc1)OCc1cnco1 (centres unmarked) [Compound 390, oxazol-5-ylmethyl (4-((8-(piperidine-1-carbonyl)-8-azabicyclo[3.2.1]octan-3-yl)methyl)phenyl)carbamate] | 0.13 µM | 1.8 µM |
| O=C(Nc1ccc(CC2CC3CCC(C2)N3C(=O)N2CCCC2)cc1)OCc1cnco1 (centres unmarked) [Compound 391, oxazol-5-ylmethyl (4-((8-(pyrrolidine-1-carbonyl)-8-azabicyclo[3.2.1]octan-3-yl)methyl)phenyl)carbamate] | 0.05 µM | 5.5 µM |
| O=C(Nc1ccc(CC2CC3CCC(C2)N3C(=O)N2CCC2)cc1)OCc1cnco1 (centres unmarked) [Compound 392, oxazol-5-ylmethyl (4-((8-(azetidine-1-carbonyl)-8-azabicyclo[3.2.1]octan-3-yl)methyl)phenyl)carbamate] | 0.13 µM | 6.9 µM |
| O=C(Nc1ccc(CC2CC3CCC(C2)N3S(=O)(=O)N2CCC2)cc1)OCc1cnco1 (centres unmarked) [Compound 393, oxazol-5-ylmethyl (4-((8-(azetidin-1-ylsulfonyl)-8-azabicyclo[3.2.1]octan-3-yl)methyl)phenyl)carbamate] | 0.13 µM | 3.84 µM |
| O=C(Nc1ccc(CC2CC3CCC(C2)N3S(=O)(=O)C2CCC2)cc1)OCc1cnco1 (centres unmarked) [Compound 394, oxazol-5-ylmethyl (4-((8-(cyclobutylsulfonyl)-8-azabicyclo[3.2.1]octan-3-yl)methyl)phenyl)carbamate] | 0.19 µM | 4.62 µM |
| COC(=O)N1CC2(CC(Cc3ccc(NC(=O)OCc4cnco4)cc3F)C2)C1 [Compound 396, methyl 6-(2-fluoro-4-(((oxazol-5-ylmethoxy)carbonyl)amino)benzyl)-2-azaspiro[3.3]heptane-2-carboxylate] | 0.11 µM | 6.78 µM |
